Assay results reported in ChEMBL document CHEMBL5532652, “Design and synthesis of pterostilbene derivatives bearing triazole moiety that might treat DSS-induced colitis in mice through modulation of NF-κB/MAPK signaling pathways” (Eur J Med Chem, 2024).
pIC50: −log10 of the molar value. Calls of active or inactive are those of the source. The calls are words filed in the database; no cut-off is given here.

How the values were obtained:
[1] = Toxicity in C57BL/6 mouse assessed as body weight loss at 20 mg/kg, po measured for 7 days; assay type: organism-based; details: in vivo, 168 h, time 7 day
Mus musculus [2] = assay: Anti-inflammatory activity against DSS-induced acute colitis C57BL/6J mouse model assessed as decrease in colon length at 10 to 20 mg/kg, po measured for 7 days; assay type: functional, organism-based; details: dose 10-20 mg/kg, time 7.0 day
RAW264.7 [3] = assay: Anti-inflammatory activity in LPS-stimulated mouse RAW264.7 cells assessed as reduction in JNK level at 0.5 to 2 uM preincubated with compound for 1 hr followed by LPS stimulation and measured after 30 mins by Western blot analysis; assay type: functional, cell-based; details: dose 0.5-2 µM, time 1.5 hrs
[4] = Acute toxicity in female C57BL/6 mouse assessed as effect on fur laxity at 1000 to 2000 mg/kg, po measured for 14 days; assay type: organism-based; details: in vivo, 336 h, dose 1000-2000 mg/kg, time 14 day
[5] = Acute toxicity in male C57BL/6 mouse assessed as lethargy at 1000 to 2000 mg/kg, po measured for 14 days; assay type: organism-based; details: in vivo, 336 h, dose 1000-2000 mg/kg, time 14 day
[6] = Cytotoxicity against mouse RAW264.7 cells assessed as reduction in cell viability at 20 uM incubated for 24 hrs in absence of LPS by MTT assay; assay type: toxicity, cell-based
[7] = Acute toxicity in C57BL/6 mouse assessed as spleen damage at 1000 mg/kg, po measured for 14 days; assay type: organism-based; details: in vivo, 336 h, time 14 day
RAW264.7 [8] = assay: Anti-inflammatory activity against LPS-stimulated mouse RAW264.7 cells assessed as reduction in LPS-induced COX-2 level preincubated with compound for 1 hr followed by LPS stimulation and measured after 24 hrs by Western blot analysis; assay type: functional, cell-based; details: dose 0.5-2 µM, time 25.0 hrs
[9] = Acute toxicity in female C57BL/6 mouse assessed as hyperactivity at 1000 to 2000 mg/kg, po measured for 14 days; assay type: organism-based; details: in vivo, 336 h, dose 1000-2000 mg/kg, time 14 day
RAW264.7 [10] = assay: Anti-inflammatory activity in LPS-stimulated mouse RAW264.7 cells assessed as reduction in ERK level at 0.5 to 2 uM preincubated with compound for 1 hr followed by LPS stimulation and measured after 30 mins by Western blot analysis; assay type: functional, cell-based; details: dose 0.5-2 µM, time 1.5 hrs
Mus musculus [11] = assay: Anti-inflammatory activity against DSS-induced acute colitis C57BL/6J mouse model assessed as reduction in TNF-alpha level in colon at 10 to 20 mg/kg, po measured for 7 days by ELISA analysis; assay type: functional, organism-based; details: dose 10-20 mg/kg, time 7.0 day
[12] = Acute toxicity in female C57BL/6 mouse assessed as anorexia at 1000 to 2000 mg/kg, po measured for 14 days; assay type: organism-based; details: in vivo, 336 h, dose 1000-2000 mg/kg, time 14 day
RAW264.7 [13] = assay: Anti-inflammatory activity in mouse RAW264.7 cells assessed as inhibition of LPS-induced NO production incubated pretreated with compound for 1 hr followed by LPS-induction and measured after 24 hrs by Griess reagent based assay; assay type: functional, cell-based
Mus musculus [14] = assay: Anti-inflammatory activity against DSS-induced acute colitis C57BL/6J mouse model assessed as decrease in goblet cells in colon at 10 to 20 mg/kg, po measured for 7 days; assay type: functional, organism-based; details: dose 10-20 mg/kg, time 7.0 day
[15] = Acute toxicity in female C57BL/6 mouse assessed as effect on body weight gain at 1000 to 2000 mg/kg, po measured for 14 days; assay type: organism-based; details: in vivo, 336 h, dose 1000-2000 mg/kg, time 14 day
[16] = Toxicity in C57BL/6 mouse assessed as reduction in disease index at 20 mg/kg, po measured for 7 days; assay type: organism-based; details: in vivo, 168 h, time 7 day
[17] = Acute toxicity in male C57BL/6 mouse assessed as effect on fur laxity at 1000 to 2000 mg/kg, po measured for 14 days; assay type: organism-based; details: in vivo, 336 h, dose 1000-2000 mg/kg, time 14 day
RAW264.7 [18] = assay: Anti-inflammatory activity in LPS-stimulated mouse RAW264.7 cells assessed as inhibition of JNK phosphorylation preincubated with compound for 1 hr followed by LPS stimulation and measured after 30 mins by Western blot analysis; assay type: functional, cell-based; details: dose 0.5-2 µM, time 1.5 hrs
[19] = Acute toxicity in C57BL/6 mouse assessed as kidney damage at 1000 mg/kg, po measured for 14 days; assay type: organism-based; details: in vivo, 336 h, time 14 day
[20] = Acute toxicity in male C57BL/6 mouse assessed as hyperactivity at 1000 to 2000 mg/kg, po measured for 14 days; assay type: organism-based; details: in vivo, 336 h, dose 1000-2000 mg/kg, time 14 day
Mus musculus [21] = assay: Anti-inflammatory activity against DSS-induced acute colitis C57BL/6J mouse model assessed as reduction in MPO level in colon at 10 to 20 mg/kg, po measured for 7 days; assay type: functional, organism-based; details: dose 10-20 mg/kg, time 7.0 day
Mus musculus [22] = assay: Anti-inflammatory activity against DSS-induced acute colitis C57BL/6J mouse model assessed as reduction in IL-6 level in colon at 10 to 20 mg/kg, po measured for 7 days by ELISA analysis; assay type: functional, organism-based; details: dose 10-20 mg/kg, time 7.0 day
[23] = Cytotoxicity against mouse RAW264.7 cells assessed as reduction in cell viability at 20 uM incubated for 24 hrs in presence of LPS by MTT assay; assay type: toxicity, cell-based
RAW264.7 [24] = assay: Anti-inflammatory activity in LPS-stimulated mouse RAW264.7 cells assessed as inhibition of ERK phosphorylation preincubated with compound for 1 hr followed by LPS stimulation and measured after 30 mins by Western blot analysis; assay type: functional, cell-based; details: dose 0.5-2 µM, time 1.5 hrs
RAW264.7 [25] = assay: Anti-inflammatory activity against LPS-stimulated mouse RAW264.7 cells assessed as downregulation of LPS-induced COX-2 expression at 0.5 to 2 uM preincubated with compound for 1 hr followed by LPS stimulation and measured after 24 hrs by Western blot analysis; assay type: functional, cell-based; details: dose 0.5-2 µM, time 25.0 hrs
[26] = Acute toxicity in male C57BL/6 mouse assessed as effect on body weight gain at 1000 to 2000 mg/kg, po measured for 14 days; assay type: organism-based; details: in vivo, 336 h, dose 1000-2000 mg/kg, time 14 day
Mus musculus [27] = assay: Anti-inflammatory activity against DSS-induced acute colitis C57BL/6J mouse model assessed as reduction in edema at 10 to 20 mg/kg, po measured for 7 days; assay type: functional, organism-based; details: dose 10-20 mg/kg, time 7.0 day
RAW264.7 [28] = assay: Anti-inflammatory activity in mouse RAW264.7 cells assessed as inhibition of LPS-induced NO production at 10 uM incubated pretreated with compound for 1 hr followed by LPS-induction and measured after 24 hrs by Griess reagent based assay relative to control; assay type: functional; details: time 25 hrs
[29] = Acute toxicity in male C57BL/6 mouse assessed as effect on body weight loss at 1000 to 2000 mg/kg, po measured for 14 days; assay type: organism-based; details: in vivo, 336 h, dose 1000-2000 mg/kg, time 14 day
Mus musculus [30] = assay: Anti-inflammatory activity against DSS-induced acute colitis C57BL/6J mouse model assessed as disappearance of crypt foci in colon at 10 to 20 mg/kg, po measured for 7 days; assay type: functional, organism-based; details: dose 10-20 mg/kg, time 7.0 day
[31] = Acute toxicity in C57BL/6 mouse assessed as heart damage at 1000 mg/kg, po measured for 14 days; assay type: organism-based; details: in vivo, 336 h, time 14 day
RAW264.7 [32] = assay: Anti-inflammatory activity in LPS-stimulated mouse RAW264.7 cells assessed as inhibition of p65 phosphorylation at 0.5 to 2 uM preincubated with compound for 1 hr followed by LPS stimulation and measured after 30 mins by Western blot analysis; assay type: functional, cell-based; details: dose 0.5-2 µM, time 1.5 hrs
RAW264.7 [33] = assay: Anti-inflammatory activity in LPS-stimulated mouse RAW264.7 cells assessed as inhibition of IkappaB phosphorylation at 0.5 to 2 uM preincubated with compound for 1 hr followed by LPS stimulation and measured after 30 mins by Western blot analysis; assay type: functional, cell-based; details: dose 0.5-2 µM, time 1.5 hrs
[34] = Acute toxicity in female C57BL/6 mouse assessed as effect on body weight loss at 1000 to 2000 mg/kg, po measured for 14 days; assay type: organism-based; details: in vivo, 336 h, dose 1000-2000 mg/kg, time 14 day

C=CCOc1ccc(/C=C/c2cc(OC)cc(OC)c2-c2cnnn2C(=O)NCCCl)cc1
Activity [1]: Toxic | Activity (Mus musculus [2]): Active | Activity (RAW264.7 [3]): Active | Activity [4]: Non-Toxic | Activity [5]: Non-Toxic | IC50 at 24 h [6]: > 50 µM | Activity [7]: Non-Toxic | Activity (RAW264.7 [8]): Dose-Dependent Effect | Activity [9]: Non-Toxic | Activity (RAW264.7 [10]): Active | Activity (Mus musculus [11]): Active | Activity [12]: Non-Toxic | pIC50 (RAW264.7 [13]): 6.22 | Activity (Mus musculus [14]): Active | Activity [15]: Non-Toxic | Activity [16]: Non-Toxic | Activity [17]: Non-Toxic | Activity (RAW264.7 [18]): Dose-Dependent Effect | Activity [19]: Non-Toxic | Activity [20]: Non-Toxic | Activity (Mus musculus [21]): Active | Activity (Mus musculus [22]): Active | IC50 at 24 h [23]: > 50 µM | Activity (RAW264.7 [24]): Dose-Dependent Effect | Activity (RAW264.7 [25]): Active | Activity [26]: Non-Toxic | Activity (Mus musculus [27]): Active | inhibition at 10 µM (RAW264.7 [28]): 98% | Activity [29]: Non-Toxic | Activity (Mus musculus [30]): Active | Activity [31]: Non-Toxic | Activity (RAW264.7 [32]): Active | Activity (RAW264.7 [33]): Active | Activity [34]: Non-Toxic
